From US20090186918A1, “Triazole Compounds as Lipoxygenase Inhibitors” (priority 2005, published 2009) come the findings set out here.

Read-outs that look alike come from different tables or passages of the source.

This test addresses T1, purified human 15-lipoxygenase (Homo sapiens, UniProt P16050).
T1 sequence (P16050 1-662): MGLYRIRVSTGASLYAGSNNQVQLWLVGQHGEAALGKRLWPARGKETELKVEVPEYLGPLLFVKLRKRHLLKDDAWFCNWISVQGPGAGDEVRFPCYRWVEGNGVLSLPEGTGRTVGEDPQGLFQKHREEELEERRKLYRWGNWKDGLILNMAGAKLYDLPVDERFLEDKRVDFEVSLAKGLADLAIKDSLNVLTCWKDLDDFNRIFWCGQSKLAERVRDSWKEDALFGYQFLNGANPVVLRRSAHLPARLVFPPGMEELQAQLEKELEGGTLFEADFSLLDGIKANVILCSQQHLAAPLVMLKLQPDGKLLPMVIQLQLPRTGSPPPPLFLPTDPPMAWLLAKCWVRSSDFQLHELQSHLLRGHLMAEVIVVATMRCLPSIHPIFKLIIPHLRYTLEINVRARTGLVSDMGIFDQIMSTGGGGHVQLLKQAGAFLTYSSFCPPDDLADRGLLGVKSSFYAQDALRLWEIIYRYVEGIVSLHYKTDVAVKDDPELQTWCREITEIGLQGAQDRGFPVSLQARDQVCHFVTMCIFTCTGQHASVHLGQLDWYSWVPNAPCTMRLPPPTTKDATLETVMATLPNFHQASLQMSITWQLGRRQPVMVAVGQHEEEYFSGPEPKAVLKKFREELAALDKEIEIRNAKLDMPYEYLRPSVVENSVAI
Description: 15-lipoxygenase inhibition assay (arachidonic acid oxidation, 15-HPETE/15-HETE measured by reverse phase HPLC). It is filed as biochemical. On the procedure:
The assay employed takes advantage of the ability of lipoxygenases to oxidize polyunsaturated fatty acids, containing a 1,4-cis-pentadiene configuration, to their corresponding hydroperoxy or hydroxyl derivatives. In this particular assay, the lipoxygenase was a purified human 15-lipoxygenase and the fatty acid was arachidonic acid. The assay is performed at room temperature (20-22° C.) and the following are added to each well in a 96-well microtiter plate:
a) 35 μL phosphate buffered saline (PBS) (pH 7.4); b) inhibitor (i.e. compound) or vehicle (0.5 μl DMSO); c) 10 μL of a 10× concentrated solution of 15-lipoxygenase in PBS. The plates are incubated for 5 minutes at room temperature;
d) 5 μl of 0.125 mM arachidonic acid in PBS. The plate is then incubated for 10 minutes at room temperature;
e) the enzymatic reaction is terminated by the addition of 100 μl methanol; and f) the amount of 15-hydroperoxy-eicosatetraenoic acid or 15-hydroxy-eicosatetraenoic acid is measured by reverse phase HPLC.

Setting [1] is: purified human 15-lipoxygenase, arachidonic acid substrate, room temperature, read-out: IC50.

Broadly, the IC50 is the concentration at which inhibition is half-maximal. For the compound `O=C(Nc1ccc(Cl)cc1C(F)(F)F)c1c[nH]nn1` [Example 75, 1,2,3-Triazole-4-carboxylic acid 4-chloro-2-(trifluoromethyl)phenylamide], the IC50 under setting [1] worked out at 250 nM. Same read-out and setting: as for `Cc1cc(NC(=O)c2c[nH]nn2)ccc1Cl` [Example 18, 1,2,3-Triazole-4-carboxylic acid (4-chloro-3-methylphenyl)amide], the figure is 950 nM; as for `O=C(Nc1ccc(Br)cn1)c1c[nH]nn1` [Example 35, 1,2,3-Triazole-4-carboxylic acid (5-bromopyridin-2-yl)amide], 810 nM. Turning to `O=C(Nc1ccc(Cl)cn1)c1c[nH]nn1` [Example 7, 1,2,3-Triazole-4-carboxylic acid (5-chloropyridin-2-yl)amide], the IC50 under setting [1] was 1800 nM. Still for that read-out and setting: the result for `O=C(Nc1ccc(Cl)c(Cl)c1)c1c[nH]nn1` [Example 9, 1,2,3-Triazole-4-carboxylic acid (3,4-dichlorophenyl)amide] reads 1600 nM. The compound `O=C(Nc1cnc2ccccc2c1)c1cn[nH]n1` [Example 1, 1,2,3-Triazole-4-carboxylic acid quinolin-3-ylamide] returned a 50% inhibitory concentration (IC50) of 1400 nM. On to `O=C(Nc1ccc(C(F)(F)F)cc1[N+](=O)[O-])c1c[nH]nn1` [Example 73, 1,2,3-Triazole-4-carboxylic acid 2-nitro-4-(trifluoromethyl)phenylamide], for which the IC50 under setting [1] stood at 3800 nM. The same measure, in the same setting: as for `O=C(Nc1cc(Cl)cc(Cl)c1)c1c[nH]nn1` [Example 82, 1,2,3-Triazole-4-carboxylic acid (3,5-dichlorophenyl)amide], the figure is 4100 nM; as for `O=C(Nc1cc(Cl)c(Cl)cc1Cl)c1c[nH]nn1` [Example 12, 1,2,3-Triazole-4-carboxylic acid (2,4,5-trichlorophenyl)amide], 760 nM.

Take `O=C(Nc1ccc(Cl)c(Cl)c1Cl)c1c[nH]nn1` [Example 6, 1,2,3-Triazole-4-carboxylic acid (2,3,4-trichlorophenyl)amide]: the 50% inhibitory concentration (IC50) under setting [1] is 330 nM.

With `Cc1ccc(NC(=O)c2c[nH]nn2)cc1F` [Example 91, 1,2,3-Triazole-4-carboxylic acid (3-fluoro-4-methylphenyl)amide], under setting [1], the IC50 is 9400 nM. Still for that read-out and setting: the result for `O=C(Nc1ccc(Cl)cc1F)c1c[nH]nn1` [Example 76, 1,2,3-Triazole-4-carboxylic acid 4-chloro-2-fluorophenylamide] reads 530 nM.

As to `O=C(Nc1ccc(C(F)(F)F)cc1C(F)(F)F)c1c[nH]nn1` [Example 36, 1,2,3-Triazole-4-carboxylic acid [2,4-bis(trifluoromethyl)phenyl]amide], under setting [1], the half-inhibitory concentration (IC50) was 1160 nM.
